Measured values published in ChEMBL document CHEMBL1909046, “DrugMatrix in vitro pharmacology data”.

Assays:
Acetylcholinesterase = Acetylcholinesterase (Homo sapiens, UniProt P22303); test: DRUGMATRIX: Acetylcholinesterase enzyme inhibition (substrate: acetylthiocholine); format: cell-based, HEK293; conditions: hek293; Not Active = under 50% inhibition at 10 µM
Substance-P receptor = Substance-P receptor (Homo sapiens, UniProt P25103); format: cell membranes, CHO, Membrane; conditions: cho; note: in other assays of this panel Not Active means under 50% inhibition at 10 µM
[1] = DRUGMATRIX: GABAA, Flunitrazepam, Central radioligand binding (ligand: [3H] Flunitrazepam); format: cell membranes, Rattus norvegicus, Wistar, Brain, Membrane; conditions: Not Active = under 50% inhibition at 10 µM
[2] = target: T1, Muscarinic acetylcholine receptor M2 (Homo sapiens, UniProt P08172); format: cell membranes, CHO-K1, Membrane; conditions: cho-k1; note: in other assays of this panel Not Active means under 50% inhibition at 10 µM
T1 sequence (P08172 whole entry): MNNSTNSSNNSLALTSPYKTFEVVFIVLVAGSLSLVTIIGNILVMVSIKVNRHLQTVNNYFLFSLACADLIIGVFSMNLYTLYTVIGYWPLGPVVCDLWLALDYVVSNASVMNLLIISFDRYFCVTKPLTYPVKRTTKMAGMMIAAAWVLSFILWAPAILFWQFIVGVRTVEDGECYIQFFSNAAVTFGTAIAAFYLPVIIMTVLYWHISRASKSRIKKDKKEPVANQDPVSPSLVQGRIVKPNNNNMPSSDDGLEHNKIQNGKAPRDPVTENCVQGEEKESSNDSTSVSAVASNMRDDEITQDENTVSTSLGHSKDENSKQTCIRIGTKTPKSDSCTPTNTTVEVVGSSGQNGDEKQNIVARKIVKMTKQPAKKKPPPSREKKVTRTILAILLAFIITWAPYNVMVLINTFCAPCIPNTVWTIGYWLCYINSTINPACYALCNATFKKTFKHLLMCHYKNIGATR

[3] = DRUGMATRIX: Serotonin (5-Hydroxytryptamine) 5-HT3 radioligand binding (ligand: [3H] GR-65630); format: cell membranes, Membrane; conditions: hek293; Not Active = under 50% inhibition at 10 µM
[4] = DRUGMATRIX: beta-Lactamase enzyme inhibition (substrate: Nitrocefin); parameters: species or system Bacillus cereus; conditions: Not Active = under 50% inhibition at 10 µM
Endothelin-1 receptor = target: T2, Endothelin-1 receptor (Homo sapiens, UniProt P25101); format: cell membranes, CHO-K1, Membrane; conditions: cho-k1; note: in other assays of this panel Not Active means under 50% inhibition at 10 µM
T2 sequence (P25101 whole entry): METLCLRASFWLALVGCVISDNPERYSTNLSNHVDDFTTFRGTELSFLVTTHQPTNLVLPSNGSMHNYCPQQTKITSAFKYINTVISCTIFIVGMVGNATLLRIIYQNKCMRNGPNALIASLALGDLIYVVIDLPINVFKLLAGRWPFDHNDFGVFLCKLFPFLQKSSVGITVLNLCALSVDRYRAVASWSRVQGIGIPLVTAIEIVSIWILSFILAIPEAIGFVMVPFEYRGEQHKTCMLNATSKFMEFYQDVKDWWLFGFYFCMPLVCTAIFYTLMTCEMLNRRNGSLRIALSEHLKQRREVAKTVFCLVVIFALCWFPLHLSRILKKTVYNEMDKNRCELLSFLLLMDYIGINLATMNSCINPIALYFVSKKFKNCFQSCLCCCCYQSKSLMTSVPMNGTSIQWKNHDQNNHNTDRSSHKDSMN

Chain of Substance-P receptor (P25103 whole entry): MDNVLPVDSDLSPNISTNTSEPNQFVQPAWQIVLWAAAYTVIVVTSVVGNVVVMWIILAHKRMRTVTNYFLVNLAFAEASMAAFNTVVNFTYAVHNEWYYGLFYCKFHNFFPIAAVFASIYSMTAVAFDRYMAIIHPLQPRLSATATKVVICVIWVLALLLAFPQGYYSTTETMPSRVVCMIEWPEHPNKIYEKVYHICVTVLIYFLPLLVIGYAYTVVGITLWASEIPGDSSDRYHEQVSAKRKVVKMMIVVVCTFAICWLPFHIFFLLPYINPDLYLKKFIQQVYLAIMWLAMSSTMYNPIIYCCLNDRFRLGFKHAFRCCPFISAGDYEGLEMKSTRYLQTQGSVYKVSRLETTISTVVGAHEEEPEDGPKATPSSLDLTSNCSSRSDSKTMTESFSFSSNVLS
Chain of Acetylcholinesterase (P22303 whole entry): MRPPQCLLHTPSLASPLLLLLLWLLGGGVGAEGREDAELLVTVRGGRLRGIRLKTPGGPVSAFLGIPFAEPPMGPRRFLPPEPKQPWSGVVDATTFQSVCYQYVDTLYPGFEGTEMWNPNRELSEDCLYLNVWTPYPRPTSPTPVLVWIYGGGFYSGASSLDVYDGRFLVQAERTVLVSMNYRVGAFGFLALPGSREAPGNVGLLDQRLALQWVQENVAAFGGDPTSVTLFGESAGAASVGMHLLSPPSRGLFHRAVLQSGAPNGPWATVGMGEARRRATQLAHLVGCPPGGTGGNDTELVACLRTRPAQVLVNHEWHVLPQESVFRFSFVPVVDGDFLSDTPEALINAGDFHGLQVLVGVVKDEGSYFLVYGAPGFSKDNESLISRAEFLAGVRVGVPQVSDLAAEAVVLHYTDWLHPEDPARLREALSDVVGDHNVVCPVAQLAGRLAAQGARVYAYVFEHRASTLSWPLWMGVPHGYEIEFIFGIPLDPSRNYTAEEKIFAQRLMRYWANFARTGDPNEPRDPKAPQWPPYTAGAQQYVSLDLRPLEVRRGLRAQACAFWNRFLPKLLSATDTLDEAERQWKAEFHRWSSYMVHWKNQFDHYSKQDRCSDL

CC(=O)O[C@@]12CO[C@@H]1C[C@H](O)[C@@]1(C)C(=O)[C@H](O)C3=C(C)[C@@H](OC(=O)[C@H](O)[C@@H](NC(=O)OC(C)(C)C)c4ccccc4)C[C@@](O)([C@@H](OC(=O)c4ccccc4)[C@H]21)C3(C)C.O.O.O [DOCETAXEL]
Not Active: IC50 (Acetylcholinesterase) | IC50 (Substance-P receptor) | IC50 [1] | Ki [1] | IC50 [2] | IC50 [3] | Ki [3] | IC50 [4] | Ki [4] | IC50 (Endothelin-1 receptor)

COc1cc2nc(N3CCN(C(=O)C4COc5ccccc5O4)CC3)nc(N)c2cc1OC (stereo not given) [DOXAZOSIN]
Not Active: IC50 (Acetylcholinesterase) | IC50 (Substance-P receptor) | IC50 [1] | Ki [1] | IC50 [2] | IC50 [3] | Ki [3] | IC50 [4] | Ki [4] | IC50 (Endothelin-1 receptor)

C[C@H]1c2cccc(O)c2C(=O)C2=C(O)[C@]3(O)C(=O)C(C(N)=O)=C(O)[C@@H](N(C)C)[C@@H]3[C@@H](O)[C@@H]21.O [DOXYCYCLINE]
Not Active: IC50 (Acetylcholinesterase) | IC50 (Substance-P receptor) | IC50 [1] | Ki [1] | IC50 [2] | IC50 [3] | Ki [3] | IC50 [4] | Ki [4] | IC50 (Endothelin-1 receptor)

O=C(CCCN1CC=C(n2c(=O)[nH]c3ccccc32)CC1)c1ccc(F)cc1 [DROPERIDOL]
Not Active: IC50 (Acetylcholinesterase) | IC50 (Substance-P receptor) | IC50 [1] | Ki [1] | IC50 [2] | IC50 [3] | Ki [3] | IC50 [4] | Ki [4] | IC50 (Endothelin-1 receptor)

CC(C)[C@H]1C(=O)N2CCC[C@H]2[C@]2(O)O[C@](NC(=O)[C@@H]3C=C4c5cccc6[nH]cc(c56)C[C@H]4N(C)C3)(C(C)C)C(=O)N12 [ERGOCORNINE]
Not Active: IC50 (Acetylcholinesterase) | IC50 (Substance-P receptor) | IC50 [1] | Ki [1] | IC50 [2] | IC50 [3] | Ki [3] | IC50 [4] | Ki [4] | IC50 (Endothelin-1 receptor)

C[C@]12CC[C@@H]3c4ccc(O)cc4CC[C@H]3[C@@H]1CCC2=O [ESTRONE]
Not Active: IC50 (Acetylcholinesterase) | IC50 (Substance-P receptor) | IC50 [1] | Ki [1] | IC50 [2] | IC50 [3] | Ki [3] | IC50 [4] | Ki [4] | IC50 (Endothelin-1 receptor)

OC(Cn1cncn1)(Cn1cncn1)c1ccc(F)cc1F [FLUCONAZOLE]
Not Active: IC50 (Acetylcholinesterase) | IC50 (Substance-P receptor) | IC50 [1] | Ki [1] | IC50 [2] | IC50 [3] | Ki [3] | IC50 [4] | Ki [4] | IC50 (Endothelin-1 receptor)

CC(C)C(=O)Nc1ccc([N+](=O)[O-])c(C(F)(F)F)c1 [FLUTAMIDE]
Not Active: IC50 (Acetylcholinesterase) | IC50 (Substance-P receptor) | IC50 [1] | Ki [1] | IC50 [2] | IC50 [3] | Ki [3] | IC50 [4] | Ki [4] | IC50 (Endothelin-1 receptor)

N=C(N)NCCN1CCCCCCC1 [GUANETHIDINE]
Not Active: IC50 (Acetylcholinesterase) | IC50 (Substance-P receptor) | IC50 [1] | Ki [1] | IC50 [2] | IC50 [3] | Ki [3] | IC50 [4] | Ki [4] | IC50 (Endothelin-1 receptor)

CC1(C)O[C@@H]2C[C@H]3[C@@H]4CCC5=CC(=O)CC[C@]5(C)[C@@]4(F)[C@@H](O)C[C@]3(C)[C@]2(C(=O)CCl)O1 [HALCINONIDE]
Not Active: IC50 (Acetylcholinesterase) | IC50 (Substance-P receptor) | IC50 [1] | Ki [1] | IC50 [2] | IC50 [3] | Ki [3] | IC50 [4] | Ki [4] | IC50 (Endothelin-1 receptor)

O=c1[nH]c(=O)n([C@H]2C[C@H](O)[C@@H](CO)O2)cc1I [IDOXURIDINE]
Not Active: IC50 (Acetylcholinesterase) | IC50 (Substance-P receptor) | IC50 [1] | Ki [1] | IC50 [2] | IC50 [3] | Ki [3] | IC50 [4] | Ki [4] | IC50 (Endothelin-1 receptor)

CC1Cc2ccccc2N1NC(=O)c1ccc(Cl)c(S(N)(=O)=O)c1 (stereo not given) [INDAPAMIDE]
Not Active: IC50 (Acetylcholinesterase) | IC50 (Substance-P receptor) | IC50 [1] | Ki [1] | IC50 [2] | IC50 [3] | Ki [3] | IC50 [4] | Ki [4] | IC50 (Endothelin-1 receptor)

Nc1nc(N)nc(-c2cc(Cl)ccc2Cl)n1.O=C(O)/C=C\C(=O)O [IRSOGLADINE MALEATE]
Not Active: IC50 (Acetylcholinesterase) | IC50 (Substance-P receptor) | IC50 [1] | Ki [1] | IC50 [2] | IC50 [3] | Ki [3] | IC50 [4] | Ki [4] | IC50 (Endothelin-1 receptor)

CCC(C)n1ncn(-c2ccc(N3CCN(c4ccc(OCC5COC(Cn6cncn6)(c6ccc(Cl)cc6Cl)O5)cc4)CC3)cc2)c1=O (stereo not given) [ITRACONAZOLE]
Not Active: IC50 (Acetylcholinesterase) | IC50 (Substance-P receptor) | IC50 [1] | Ki [1] | IC50 [2] | IC50 [3] | Ki [3] | IC50 [4] | Ki [4] | IC50 (Endothelin-1 receptor)

CCCCN1CCCC[C@H]1C(=O)Nc1c(C)cccc1C [LEVOBUPIVACAINE]
Not Active: IC50 (Acetylcholinesterase) | IC50 (Substance-P receptor) | IC50 [1] | Ki [1] | IC50 [2] | IC50 [3] | Ki [3] | IC50 [4] | Ki [4] | IC50 (Endothelin-1 receptor)

CCCCc1nc(Cl)c(CO)n1Cc1ccc(-c2ccccc2-c2nnn[nH]2)cc1 [LOSARTAN]
Not Active: IC50 (Acetylcholinesterase) | IC50 (Substance-P receptor) | IC50 [1] | Ki [1] | IC50 [2] | IC50 [3] | Ki [3] | IC50 [4] | Ki [4] | IC50 (Endothelin-1 receptor)

Sc1ncnc2nc[nH]c12 [MERCAPTOPURINE ANHYDROUS]
Not Active: IC50 (Acetylcholinesterase) | IC50 (Substance-P receptor) | IC50 [1] | Ki [1] | IC50 [2] | IC50 [3] | Ki [3] | IC50 [4] | Ki [4] | IC50 (Endothelin-1 receptor)

C[C@](N)(Cc1ccc(O)c(O)c1)C(=O)O [METHYLDOPA]
Not Active: IC50 (Acetylcholinesterase) | IC50 (Substance-P receptor) | IC50 [1] | Ki [1] | IC50 [2] | IC50 [3] | Ki [3] | IC50 [4] | Ki [4] | IC50 (Endothelin-1 receptor)

C[C@]12CCC(=O)C=C1CC[C@@H]1[C@@H]2CC[C@@]2(C)[C@H]1CC[C@]2(C)O [METHYLTESTOSTERONE]
Not Active: IC50 (Acetylcholinesterase) | IC50 (Substance-P receptor) | IC50 [1] | Ki [1] | IC50 [2] | IC50 [3] | Ki [3] | IC50 [4] | Ki [4] | IC50 (Endothelin-1 receptor)

Cc1ccccc1N1C(=O)c2cc(S(N)(=O)=O)c(Cl)cc2NC1C (stereo not given) [METOLAZONE]
Not Active: IC50 (Acetylcholinesterase) | IC50 (Substance-P receptor) | IC50 [1] | Ki [1] | IC50 [2] | IC50 [3] | Ki [3] | IC50 [4] | Ki [4] | IC50 (Endothelin-1 receptor)

COCCc1ccc(OCC(O)CNC(C)C)cc1 (stereo not given) [METOPROLOL]
Not Active: IC50 (Acetylcholinesterase) | IC50 (Substance-P receptor) | IC50 [1] | Ki [1] | IC50 [2] | IC50 [3] | Ki [3] | IC50 [4] | Ki [4] | IC50 (Endothelin-1 receptor)

CCn1cc(C(=O)O)c(=O)c2cc(F)c(N3CCNCC3)cc21 [NORFLOXACIN]
Not Active: IC50 (Acetylcholinesterase) | IC50 (Substance-P receptor) | IC50 [1] | Ki [1] | IC50 [2] | IC50 [3] | Ki [3] | IC50 [4] | Ki [4] | IC50 (Endothelin-1 receptor)

NC1=NC(=O)C(c2ccccc2)O1 (stereo not given) [PEMOLINE]
Not Active: IC50 (Acetylcholinesterase) | IC50 (Substance-P receptor) | IC50 [1] | Ki [1] | IC50 [2] | IC50 [3] | Ki [3] | IC50 [4] | Ki [4] | IC50 (Endothelin-1 receptor)
